Measurements from patent publication US20130225641A1, “ANTICANCER COMPOUNDS AND PREPARATION METHODS THEREOF” (priority 2010, published 2013).

Tests used:
[1] = system: IGROV1; test: MTT cytotoxicity, IGROV1; type: cell-based; details: Homo sapiens, IGROV-1, IGROV1, Ovarian, 72 hrs, read-out: LC50 (the source's name)
Method: (§1) The cytotoxicity of ZTP and ZTQ was analyzed by using human tumor cell lines. Human tumor cell lines were purchased from ATCC and NCI, and cultured in DMEM medium containing 10% FBS at 37° C. in 5% CO2 in an incubator. The cells grown to confluence were used for cytotoxicity analysis. The cells were digested with trypsin, washed with the culture medium, and then counted. 33 tumor cell lines were cultured. The cells were seeded at a density of 3000-6000 cells/well in a 96-well plate and incubated for 16-24 hrs. Then, various concentrations of ZTP or ZTQ dissolved in DMSO were added, and cultured for 72 hrs. The drug-treated cells and control cells were analyzed by MTT.

[2] = system: human lung cancer cells (NCI-H23); test: Transplantation model of human lung cancer (NCI-H23) in nude mice; type: in vivo, nude mice (nu/nu); details: NCI-H23 subcutaneous in nude mice; oral daily 5 days/week, 3 weeks; ZTP 30 mg/kg, ZTQ 60 mg/kg; lower = stronger
Method: T-cell deficient nude mice (nu/nu) of 6 weeks old were purchased from Charles River Laboratory, and housed and treated in a sterile environment following Institutional Animal Care & Use Committee Program. 48 mice were respectively subcutaneously inoculated on ribbed belly with 5×10^6 human liver cancer cells (HepG3B), human lung caner cells (NCI-H23), and human colon cancer cells (HCT-116) suspended in 0.2 ml HBSS/matrigel (50:50, V/V). When the tumor grew to have an average diameter of 7-8 mm and a volume of about 100-200 mm^3, 24 mice were picked up, and assigned to treatment groups (16 animals/2 groups), and a control group (8 animals). The 2 treatment groups were administered with the compounds ZTP and ZTQ dissolved in 15% Captsol respectively at a dose of 30 mg/kg and 60 mg/kg, and the control group only received an excipient (15% Captsol).
The same number of mice of each type was assigned to the control group and the treatment groups with the compounds ZTP and ZTQ respectively.
The dose schedule of the test compounds in the tumor transplanted nude mice was as follows: the compounds ZTP and ZTQ dissolved in 15% Captsol were daily orally administered as a 200 μl solution containing 0.75 mg of ZTP and 1.5 mg of ZTQ for 5 days/week over 3 consecutive weeks, followed by one-week break; and the control group was only administered with 200 μl of the placebo (15% Captsol) for 3 weeks, followed by 1 week of break. The two groups of animals were housed separately, and allowed to free access to food.
Evaluation of antitumor effect: the tumor size was measured every 3 or 4 days. The tumor volume was calculated using the equation below: […], in which a denotes the width (the shorter diameter), and b denotes the length (the longer diameter). Relative tumor volume (RTV) of each tumor refers to the ratio of the volume at a specified time to that at the beginning of the treatment. The average RTV for each treatment group was calculated. The antitumor activity was determined by calculating the tumor growth inhibition using a formula below. […]

[3] = MTT cytotoxicity, MCF-10a normal mammary epithelial cell; type: cell-based, human; details: human, MCF-10a normal mammary epithelial cells; MCF-10a, Normal mammary epithelial cell; 72 hrs, MTT; read-out: LC50
Method: [Worded in the source for another cell line; this cell line is reported under the same test.] as §1

[4] = system: MCF-10a; test: as above; type: cell-based, human; details: cells still grow well at a concentration up to 30 μm
Method: [Worded in the source for another cell line; this cell line is reported under the same test.] as §1

[5] = system: LnCAP; test: MTT cytotoxicity, LnCAP; type: cell-based; details: Homo sapiens, Prostatic, 72 hrs, read-out: LC50 (the source's name)
Method: as §1

[6] = system: SGC-7901; test: MTT cytotoxicity, SGC-7901; type: cell-based; details: Homo sapiens, SGC-7901, Gastric, 72 hrs, read-out: LC50 (the source's name)
Method: as §1

[7] = system: HT29; test: MTT cytotoxicity, HT29; type: cell-based; details: Homo sapiens, HT-29, HT29, Colonic, 72 hrs, read-out: LC50 (the source's name)
Method: as §1

[8] = MTT cytotoxicity, HUMEC human microvascular endothelial cell; type: cell-based; details: HUMEC human microvascular endothelial cells, read-out: LC50
Method: [Worded in the source for another cell line; this cell line is reported under the same test.] as §1

[9] = system: Raf protein kinase; test: Inhibition of Raf protein kinase activity (phosphorylated MEK, western blotting) in MDA-MB-321 cells; type: cell-based, human; details: 1 hour treatment, phosphorylated MEK level, read-out: median inhibitory concentration (IC50) for inhibiting the activity of Raf protein kinase
Text: Raf is a proto-oncogenic product, and activation of Raf is regulated with stimulation from extracellular cell growth factors. Once activated, Raf can activate MEK through phosphorylation, and further transmits an activation signal to ERK, thereby promoting the growth of tumor cells. In this test, the level of phosphorylated MEK in cells is indicative of the activity of Raf protein kinase in cells. MDA-MB-321 is a human derived breast cancer cell line, which is rich in Raf protein. We used MDA-MB-321 cells to detect whether ZTP and ZTQ can inhibit the activity of Raf protein kinase. MDA-MB-321 cells were subjected to adherent growth in the RPMI 1640 medium (GIBCO-BRL) containing 10% bovine calf serum at 37° C. in 5% CO2. The cells were treated with various concentrations of ZTP and ZTQ (0, 10 ng/ml, 100 ng/ml, 500 ng/ml, 1 μg/ml, and 10 μg/ml), and the cell proteins were collected 1 hour after treatment. The protein content was determined through Bradford method, and then the level of phosphorylated MEK was assayed through western blotting. Immunoblotting experiment: denatured polyacrylamide gel was used for separation of the proteins with a sample load of 60 μg of total proteins. The proteins were electro-transferred onto a PVDF membrane and blocked. […] The membrane was exposed to an X-ray film, and the results were analyzed by a gel imaging system. […]

[10] = system: PC3; test: MTT cytotoxicity, PC3; type: cell-based; details: Homo sapiens, PC-3, PC3, Prostatic, 72 hrs, read-out: LC50 (the source's name)
Method: as §1

[11] = system: NCI-H23; test: MTT cytotoxicity, NCI-H23; type: cell-based; details: Homo sapiens, NCI-H23, Lung, 72 hrs, read-out: LC50 (the source's name)
Method: as §1

[12] = system: SN12C; test: MTT cytotoxicity, SN12C; type: cell-based; details: Homo sapiens, Renal, 72 hrs, read-out: LC50 (the source's name)
Method: as §1

| SMILES | CC50 [1] [µM] | TGI (T/C×100) [2] [%] | CC50 at 72 h [3] [µM] | susceptibility of normal human mammary epithelial cells (MCF-10a) [4] | CC50 [5] [µM] | CC50 [6] [µM] | CC50 [7] [µM] | CC50 at 72 h [8] [µM] | IC50 [9] [µM] | CC50 [10] [µM] | CC50 [11] [µM] | CC50 [12] [µM] |
| --- | --- | --- | --- | --- | --- | --- | --- | --- | --- | --- | --- | --- |
| CNC(=O)c1cc(Oc2ccc(NC(=S)Nc3ccc(Cl)c(C(F)(F)F)c3)cc2)ccn1 [ZTP, N-[4-chloro-3-(trifluoromethyl)phenyl]-[4-(N-methyl-formamide)(4-pyridyloxy)phenyl]-thiourea] | 0.92 | 10 | > 30 | insusceptible | 1.05 | 1.31 | 1.19 | 0.031 | 0.045 | 1.31 | 0.89 | 3.21 |
| CNC(=O)c1cc(Sc2ccc(NC(=S)Nc3ccc(Cl)c(C(F)(F)F)c3)cc2)ccn1 [ZTQ, N-[4-chloro-3-(trifluoromethyl)phenyl]-[4-(N-methyl-formamide)(4-pyridylthio)phenyl]-thiourea] | 0.73 | 9.21 | > 30 | insusceptible | 0.82 | 1.03 | 0.92 | 0.019 | 0.02 | 1.05 | 0.71 | 2.2 |
